Where “and” joins values, the source holds several entries; their conditions need not be identical. Equal entries are not always repeated. Entries after “also recorded” stand apart in the source; their conditions may differ.
Tests used:
[1] = target: T1, hNaV1.6 (Homo sapiens, UniProt Q9UQD0); test: Automated patch-clamp, rested state 'Peak' current (Vh -120 mV); assay type: cell-based
T1 construct: expression vector containing the full-length cDNA coding for specific human and mouse sodium channel α-subunit; expressed in transfected cells
T1 sequence (Q9UQD0 whole entry): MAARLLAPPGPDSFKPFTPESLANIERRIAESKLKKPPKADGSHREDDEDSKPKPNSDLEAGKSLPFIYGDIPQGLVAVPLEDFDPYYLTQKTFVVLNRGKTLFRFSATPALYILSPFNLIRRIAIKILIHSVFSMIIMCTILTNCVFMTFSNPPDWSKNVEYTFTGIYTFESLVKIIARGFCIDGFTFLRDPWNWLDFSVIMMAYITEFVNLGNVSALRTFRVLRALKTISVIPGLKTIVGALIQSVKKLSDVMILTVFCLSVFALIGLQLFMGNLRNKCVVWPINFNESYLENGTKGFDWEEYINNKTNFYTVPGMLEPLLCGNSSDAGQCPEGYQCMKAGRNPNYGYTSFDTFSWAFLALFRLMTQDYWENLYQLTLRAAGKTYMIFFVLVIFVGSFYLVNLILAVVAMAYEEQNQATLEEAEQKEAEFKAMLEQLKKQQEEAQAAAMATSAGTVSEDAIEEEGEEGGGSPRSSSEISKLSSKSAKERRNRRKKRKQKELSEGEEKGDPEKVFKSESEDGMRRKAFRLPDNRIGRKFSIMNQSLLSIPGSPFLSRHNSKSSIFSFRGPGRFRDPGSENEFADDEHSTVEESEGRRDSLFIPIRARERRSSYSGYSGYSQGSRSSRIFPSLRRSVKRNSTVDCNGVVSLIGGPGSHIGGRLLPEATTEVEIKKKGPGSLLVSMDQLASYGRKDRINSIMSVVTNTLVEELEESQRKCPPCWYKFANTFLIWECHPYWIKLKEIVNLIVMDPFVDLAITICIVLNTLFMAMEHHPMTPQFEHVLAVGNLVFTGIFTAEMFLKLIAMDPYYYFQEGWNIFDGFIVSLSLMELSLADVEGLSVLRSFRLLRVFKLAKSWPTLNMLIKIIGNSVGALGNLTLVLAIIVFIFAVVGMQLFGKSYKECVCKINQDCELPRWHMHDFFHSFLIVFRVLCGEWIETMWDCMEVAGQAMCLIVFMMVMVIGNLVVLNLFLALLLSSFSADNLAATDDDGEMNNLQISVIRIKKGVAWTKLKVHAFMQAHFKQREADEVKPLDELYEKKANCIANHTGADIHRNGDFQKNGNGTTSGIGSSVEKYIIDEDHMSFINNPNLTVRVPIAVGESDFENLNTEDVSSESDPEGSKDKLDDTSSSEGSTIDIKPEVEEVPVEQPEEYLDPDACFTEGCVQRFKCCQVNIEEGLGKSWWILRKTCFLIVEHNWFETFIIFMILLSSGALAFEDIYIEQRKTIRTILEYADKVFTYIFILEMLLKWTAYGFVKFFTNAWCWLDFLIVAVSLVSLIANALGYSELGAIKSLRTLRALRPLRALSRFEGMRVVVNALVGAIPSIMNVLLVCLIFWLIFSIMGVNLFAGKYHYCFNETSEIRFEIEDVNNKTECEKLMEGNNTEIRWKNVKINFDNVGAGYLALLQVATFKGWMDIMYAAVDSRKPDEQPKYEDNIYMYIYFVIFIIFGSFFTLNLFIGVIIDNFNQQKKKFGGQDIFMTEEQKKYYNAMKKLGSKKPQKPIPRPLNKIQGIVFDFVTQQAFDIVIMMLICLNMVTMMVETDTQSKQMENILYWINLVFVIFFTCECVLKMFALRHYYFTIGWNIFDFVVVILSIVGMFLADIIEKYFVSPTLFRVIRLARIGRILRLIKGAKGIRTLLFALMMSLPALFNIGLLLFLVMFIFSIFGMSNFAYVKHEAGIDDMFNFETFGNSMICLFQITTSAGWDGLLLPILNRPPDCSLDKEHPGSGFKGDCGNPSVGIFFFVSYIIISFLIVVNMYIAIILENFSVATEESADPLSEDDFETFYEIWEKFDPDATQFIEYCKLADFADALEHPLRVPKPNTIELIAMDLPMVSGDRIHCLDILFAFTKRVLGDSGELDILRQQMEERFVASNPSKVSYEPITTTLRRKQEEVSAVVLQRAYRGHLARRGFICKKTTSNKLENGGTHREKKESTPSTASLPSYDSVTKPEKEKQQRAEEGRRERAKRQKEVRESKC
T1 sequence (Q92913 1-192 isoform Q92913-2 partner): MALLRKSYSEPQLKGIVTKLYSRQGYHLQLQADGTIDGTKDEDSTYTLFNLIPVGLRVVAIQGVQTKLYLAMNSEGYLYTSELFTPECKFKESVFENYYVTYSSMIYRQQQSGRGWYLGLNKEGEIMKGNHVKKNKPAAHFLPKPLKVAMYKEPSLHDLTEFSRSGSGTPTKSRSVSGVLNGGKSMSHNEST
Text: Holding the membrane potential at –120 mV induces most channels to reside in the resting state. […] Holding the membrane potential at –45 mV encourages channels to transition into inactivated states. Brief hyperpolarizations allow rapid recovery from inactivation for channels that are not bound to drug followed by a short 20ms test pulse to –20 mV to measure currents from unbound channels (see Materials and methods for details).
Inorm(CPD)=(ICPD−Icontrol)/(ITTX−Icontrol).

[2] = target: T2, hNaV1.5 (Homo sapiens, UniProt Q14524); test: Qube 384 automated patch-clamp, inactivated-state inhibition; assay type: cell-based
T2 construct: expression vector containing the full-length cDNA coding for specific human and mouse sodium channel α-subunit; expressed in transfected cells
T2 sequence (Q14524 whole entry): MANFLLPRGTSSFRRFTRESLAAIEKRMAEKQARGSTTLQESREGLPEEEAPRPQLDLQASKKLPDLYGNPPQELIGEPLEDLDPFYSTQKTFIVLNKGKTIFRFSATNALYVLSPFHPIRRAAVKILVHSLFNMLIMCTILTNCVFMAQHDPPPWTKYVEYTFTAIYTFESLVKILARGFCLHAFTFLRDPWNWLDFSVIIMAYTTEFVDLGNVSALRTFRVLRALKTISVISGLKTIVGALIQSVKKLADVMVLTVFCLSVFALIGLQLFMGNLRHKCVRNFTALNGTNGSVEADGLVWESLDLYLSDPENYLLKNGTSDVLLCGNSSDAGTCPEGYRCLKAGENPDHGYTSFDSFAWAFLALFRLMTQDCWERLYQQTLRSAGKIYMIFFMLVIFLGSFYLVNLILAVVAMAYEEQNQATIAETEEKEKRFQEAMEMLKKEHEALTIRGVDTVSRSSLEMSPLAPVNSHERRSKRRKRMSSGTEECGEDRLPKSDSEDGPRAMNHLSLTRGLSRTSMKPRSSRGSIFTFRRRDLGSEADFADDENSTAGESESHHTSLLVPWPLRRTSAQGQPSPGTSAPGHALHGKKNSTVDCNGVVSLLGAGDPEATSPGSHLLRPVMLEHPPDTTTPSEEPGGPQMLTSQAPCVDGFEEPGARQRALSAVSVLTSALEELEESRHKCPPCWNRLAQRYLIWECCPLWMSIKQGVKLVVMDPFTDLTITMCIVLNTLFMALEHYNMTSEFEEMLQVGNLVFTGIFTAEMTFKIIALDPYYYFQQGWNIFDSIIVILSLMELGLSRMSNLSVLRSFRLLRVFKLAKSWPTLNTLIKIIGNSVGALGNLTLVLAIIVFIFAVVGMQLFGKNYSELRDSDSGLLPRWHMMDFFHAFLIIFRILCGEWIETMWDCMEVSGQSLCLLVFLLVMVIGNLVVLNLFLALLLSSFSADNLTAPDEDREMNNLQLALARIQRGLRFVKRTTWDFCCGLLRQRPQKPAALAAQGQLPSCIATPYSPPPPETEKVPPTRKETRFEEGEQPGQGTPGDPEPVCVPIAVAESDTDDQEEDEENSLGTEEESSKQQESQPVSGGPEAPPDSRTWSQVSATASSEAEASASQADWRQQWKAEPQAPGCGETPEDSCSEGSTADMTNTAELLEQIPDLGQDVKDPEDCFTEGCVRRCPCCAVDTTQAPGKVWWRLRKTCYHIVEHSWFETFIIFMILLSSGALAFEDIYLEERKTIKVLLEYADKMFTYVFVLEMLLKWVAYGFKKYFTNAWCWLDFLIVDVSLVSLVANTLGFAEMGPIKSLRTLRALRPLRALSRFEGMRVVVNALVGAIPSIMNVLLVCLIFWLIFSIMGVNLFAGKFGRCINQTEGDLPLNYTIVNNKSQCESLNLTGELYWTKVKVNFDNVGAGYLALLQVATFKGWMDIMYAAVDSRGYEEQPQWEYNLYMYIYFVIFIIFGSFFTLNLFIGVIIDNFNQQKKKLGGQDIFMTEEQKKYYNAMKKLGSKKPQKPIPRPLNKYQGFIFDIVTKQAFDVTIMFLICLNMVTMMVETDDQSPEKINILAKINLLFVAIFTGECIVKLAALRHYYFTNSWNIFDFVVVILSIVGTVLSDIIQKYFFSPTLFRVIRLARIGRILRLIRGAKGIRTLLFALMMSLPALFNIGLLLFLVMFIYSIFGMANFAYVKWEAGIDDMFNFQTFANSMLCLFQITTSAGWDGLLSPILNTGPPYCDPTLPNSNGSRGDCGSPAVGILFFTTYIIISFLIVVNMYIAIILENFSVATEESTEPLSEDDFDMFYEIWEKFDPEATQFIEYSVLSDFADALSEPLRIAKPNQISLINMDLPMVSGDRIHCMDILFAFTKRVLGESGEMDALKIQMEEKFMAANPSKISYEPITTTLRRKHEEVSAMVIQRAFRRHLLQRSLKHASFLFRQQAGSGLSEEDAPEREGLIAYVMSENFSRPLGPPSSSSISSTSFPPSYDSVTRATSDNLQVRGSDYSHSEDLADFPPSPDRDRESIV

[3] = test system: fast spiking interneurons; test: Current-clamp recording in brain slices, action-potential firing; assay type: cell-based, mouse; details: for Fast spiking interneurons APs/1s: 0.25 μM, individual neurons; for Cumulative number of action potentials fired by each cell on increasing current injections: 250 nM, fast spiking interneurons
Method: Parasagittal cortical brain slices were prepared from> P21 mice using standard procedures (adapted from Tai et al., PNAS 2014). Briefly, the mouse was deeply anaesthetized with isoflurane and decapitated. The brain was removed and placed into chilled artificial cerebrospinal fluid (aCSF) solution containing (in mM): 125 NaCl, 25 NaHCO3, 2.5 KCl, 1.25 NaH2PO4, 2 CaCl2, 2 MgCl2, 10 d-glucose, pH 7.3, osmolarity adjusted to ~306 mOsm using sucrose. All solutions were saturated with 95% O2 and 5% CO2 constantly perfused with 95% O2/5% CO2. Slices with a thickness of 400 µm were prepared using a vibratome (Ted Pella, Inc). Following sectioning, the slices were placed in a holding chamber and incubated in a water bath at 34 °C for 15 min. The brain slices were removed from the water bath and held at room temperature for 60 min prior to recording.
All experiments involving rodent subjects were performed in accordance with the guidelines of the Canadian Council on Animal Care (CCAC). Following a 60-min incubation at room temperature, a brain slice was selected and placed on the stage of an upright microscope (SliceScope Pro 2000, Scientifica). The slice was constantly perfused with room temperature aCSF, containing 0.1% DMSO as a vehicle control, and oxygenated with 95% O2/5% CO2.The slice was visualized using brightfield microscopy, and a healthy neuron was selected from neocortical layer 5. […] Stimulation was applied in current-clamp mode, and consisted of a series of 1000ms square pulses, beginning at –20 pA and increasing by +20 pA increments (3000ms between pulses).
The slice was incubated in circulating compound for 10 min before repeating the series of square pulse stimulations. Working stock solutions were prepared in DMSO at a concentration of 20 mM.
All data analysis was done offline using ClampFit 10.7 (Molecular Devices). Data are presented as a mean ± SEM. For each sweep, the number of evoked APs was counted, and plotted as a function of current injection (beginning with –20 pA). […] Statistical significance was assessed using paired, two-way, student’s t-test applied at each current injection level with significance considered p < 0.05.

[4] = target: T3, hNaV1.6(N1768D) resurgent currents (Homo sapiens, UniProt Q9UQD0, N1768D); test: Resurgent current inhibition; assay type: cell-based
T3 construct: expression vector containing the full-length cDNA coding for specific human and mouse sodium channel α-subunit; expressed in transfected cells
T3 sequence (Q9UQD0 whole entry N1768D): as the sequence (Q9UQD0 whole entry) above, with N1768D counted along it
T3 sequence (Q92913 1-192 isoform Q92913-2 partner): as the sequence (Q92913 1-192 isoform Q92913-2 partner) above

[5] = target: hNaV1.4 (Homo sapiens, UniProt P35499); test: Qube 384 automated patch-clamp, inactivated-state inhibition
[6] = parameters: method as in Beatch et al., 2020; details: humans; ref Beatch et al., 2020; cited from earlier work

Cc1cc(S(=O)(=O)Nc2cscn2)c(F)cc1N(C)[C@H]1CCN(Cc2ccccc2)C1 [NBI-921352]
IC50 [1]: 36 µM | hNav1.6 current in (352)/(Vehicle), Rested (-120mV), mean ([1]; -4 Log M): 0.8706 | hNav1.6 current in (352)/(Vehicle), Rested (-120mV), mean ([1]; -4.47713 Log M): 0.4353 | hNav1.6 current in (352)/(Vehicle), Rested (-120mV), mean ([1]; -4.95425 Log M): 0.1765 | hNav1.6 current in (352)/(Vehicle), Rested (-120mV), mean ([1]; -5.43133 Log M): 0.09412 | hNav1.6 current in (352)/(Vehicle), Rested (-120mV), mean ([1]; -5.90833 Log M): -0.01176 | hNav1.6 current in (352)/(Vehicle), Rested (-120mV), mean ([1]; -6.3851 Log M): -0.02353 | hNav1.6 current in (352)/(Vehicle), Rested (-120mV), mean ([1]; -6.86328 Log M): 0.1176 | hNav1.6 current in (352)/(Vehicle), Rested (-120mV), mean ([1]; -7.33724 Log M): 0.05882 | inhibition at 30 µM ([2]; 30 µM, NaV1.5, read-out: inhibition at the highest concentration tested): < 50% | hNaV1.5 current (352)/(Vehicle), mean ([2]; -4.52288 Log M): 0.24 | hNaV1.5 current (352)/(Vehicle), mean ([2]; -5 Log M): 0.1 | hNaV1.5 current (352)/(Vehicle), mean ([2]; -5.47716 Log M): 0.02 | hNaV1.5 current (352)/(Vehicle), mean ([2]; -5.95429 Log M): 0.05 | hNaV1.5 current (352)/(Vehicle), mean ([2]; -6.91009 Log M): 0.04 | hNaV1.5 current (352)/(Vehicle), mean ([2]; -7.38722 Log M): -0.02 | hNaV1.5 current (352)/(Vehicle), mean ([2]; -7.85387 Log M): 0.03 | effect on action-potential firing, fast-spiking interneurons ([3]; 0.25 µM NBI-921352): trend toward slightly increased firing frequency; also recorded: no significant effect | Fast spiking interneurons APs/1s ([3]; 220 pA current injected): 51 APs/1s and 58 APs/1s and 67 APs/1s | Fast spiking interneurons APs/1s ([3]; current injected 0 pA): 0 APs/1s | Fast spiking interneurons APs/1s ([3]; current injected 20 pA): 0 APs/1s | Fast spiking interneurons APs/1s ([3]; current injected 40 pA): 0 APs/1s | Fast spiking interneurons APs/1s ([3]; current injected 60 pA, row): 0 APs/1s (2×) and 17 APs/1s | Fast spiking interneurons APs/1s ([3]; current injected 80 pA, row): 0 APs/1s and 1 APs/1s and 25 APs/1s | Fast spiking interneurons APs/1s ([3]; current injected 100 pA, row): 20 APs/1s and 25 APs/1s and 33 APs/1s | Fast spiking interneurons APs/1s ([3]; current injected 120 pA, row): 28 APs/1s and 33 APs/1s and 39 APs/1s | Fast spiking interneurons APs/1s ([3]; current injected 140 pA, row): 34 APs/1s and 40 APs/1s and 45 APs/1s | Fast spiking interneurons APs/1s ([3]; current injected 160 pA, row): 38 APs/1s and 46 APs/1s and 52 APs/1s | Fast spiking interneurons APs/1s ([3]; current injected 180 pA, row): 43 APs/1s and 50 APs/1s and 57 APs/1s | Fast spiking interneurons APs/1s ([3]; current injected 200 pA, row): 47 APs/1s and 55 APs/1s and 62 APs/1s | Fast spiking interneurons APs/1s ([3]; current injected 220 pA, row): 51 APs/1s and 58 APs/1s and 67 APs/1s | Fast spiking interneurons APs/1s ([3]; current injected 240 pA, row): 55 APs/1s and 62 APs/1s and 73 APs/1s | Fast spiking interneurons APs/1s ([3]; current injected 260 pA, row): 58 APs/1s and 65 APs/1s and 77 APs/1s | Fast spiking interneurons APs/1s ([3]; current injected 280 pA, row): 61 APs/1s and 70 APs/1s and 82 APs/1s | Fast spiking interneurons APs/1s ([3]; current injected 300 pA, row): 65 APs/1s and 73 APs/1s and 86 APs/1s | Fast spiking interneurons APs/1s ([3]; current injected 320 pA, row): 68 APs/1s and 76 APs/1s and 89 APs/1s | Fast spiking interneurons APs/1s ([3]; current injected 340 pA, row): 70 APs/1s and 80 APs/1s and 96 APs/1s | Fast spiking interneurons APs/1s ([3]; current injected 360 pA, row): 73 APs/1s and 83 APs/1s and 100 APs/1s | Fast spiking interneurons APs/1s ([3]; current injected 380 pA, row): 74 APs/1s and 83 APs/1s and 100 APs/1s | Fast spiking interneurons APs/1s ([3]; current injected 400 pA, row): 75 APs/1s and 86 APs/1s and 103 APs/1s | Fast spiking interneurons APs/1s ([3]; current injected 420 pA, row): 77 APs/1s and 87 APs/1s and 101 APs/1s | Fast spiking interneurons APs/1s ([3]; current injected 440 pA, row): 77 APs/1s and 88 APs/1s and 103 APs/1s | Fast spiking interneurons APs/1s ([3]; current injected -20 pA): 0 APs/1s | Cumulative number of action potentials fired by each cell on increasing current injections ([3]; up to current injected 0 pA): 0 | Cumulative number of action potentials fired by each cell on increasing current injections ([3]; up to current injected 20 pA): 0 | Cumulative number of action potentials fired by each cell on increasing current injections ([3]; up to current injected 40 pA): 0 | Cumulative number of action potentials fired by each cell on increasing current injections ([3]; up to current injected 140 pA, listed as NBI-921252): 82 and 99 and 159 | Cumulative number of action potentials fired by each cell on increasing current injections ([3]; up to current injected 160 pA, listed as NBI-921252): 120 and 145 and 211 | Cumulative number of action potentials fired by each cell on increasing current injections ([3]; up to current injected 180 pA, listed as NBI-921252): 163 and 195 and 268 | Cumulative number of action potentials fired by each cell on increasing current injections ([3]; up to current injected 200 pA, listed as NBI-921252): 210 and 250 and 330 | Cumulative number of action potentials fired by each cell on increasing current injections ([3]; up to current injected 220 pA, listed as NBI-921252): 261 and 308 and 397 | Cumulative number of action potentials fired by each cell on increasing current injections ([3]; up to current injected 240 pA, listed as NBI-921252): 316 and 370 and 470 | Cumulative number of action potentials fired by each cell on increasing current injections ([3]; up to current injected 260 pA, listed as NBI-921252): 374 and 435 and 547 | Cumulative number of action potentials fired by each cell on increasing current injections ([3]; up to current injected 280 pA, listed as NBI-921252): 435 and 505 and 629 | Cumulative number of action potentials fired by each cell on increasing current injections ([3]; up to current injected 300 pA, listed as NBI-921252): 500 and 578 and 715 | Cumulative number of action potentials fired by each cell on increasing current injections ([3]; up to current injected 320 pA, listed as NBI-921252): 568 and 654 and 804 | Cumulative number of action potentials fired by each cell on increasing current injections ([3]; up to current injected 340 pA, listed as NBI-921252): 638 and 734 and 900 | Cumulative number of action potentials fired by each cell on increasing current injections ([3]; up to current injected 360 pA, listed as NBI-921252): 711 and 817 and 1000 | Cumulative number of action potentials fired by each cell on increasing current injections ([3]; up to current injected 380 pA, listed as NBI-921252): 785 and 900 and 1100 | Cumulative number of action potentials fired by each cell on increasing current injections ([3]; up to current injected 400 pA, listed as NBI-921252): 860 and 986 and 1203 | Cumulative number of action potentials fired by each cell on increasing current injections ([3]; up to current injected 420 pA, listed as NBI-921252): 937 and 1073 and 1304 | Cumulative number of action potentials fired by each cell on increasing current injections ([3]; up to current injected 440 pA, listed as NBI-921252): 1014 and 1161 and 1407 | Cumulative number of action potentials fired by each cell on increasing current injections ([3]; up to current injected -20 pA): 0 | N1768D current in (352)/(Vehicle), Resurgent, mean ([4]; -5 Log M): 0.94 | N1768D current in (352)/(Vehicle), Resurgent, mean ([4]; -5.47716 Log M): 0.88 | N1768D current in (352)/(Vehicle), Resurgent, mean ([4]; -5.95429 Log M): 0.86 | N1768D current in (352)/(Vehicle), Resurgent, mean ([4]; -6.91009 Log M): 0.8 | N1768D current in (352)/(Vehicle), Resurgent, mean ([4]; -7.38722 Log M): 0.57 | N1768D current in (352)/(Vehicle), Resurgent, mean ([4]; -7.85387 Log M): 0.18 | IC50 ([4]; NaVβ4 peptide 200 μM intracellular, read-out: apparent IC50 resurgent currents from N1768D channels): 0.037 µM | IC50 [5]: > 30 µM | inhibition at 30 µM ([5]; read-out: inhibition at the highest concentration tested): < 50% | half-life of elimination [6]: approximately 8.5 hr

From PMC8903829 (eLife, 2022)
